This is an account of results in patent publication US10548883B2, “Benzotriazole-derived α and β-unsaturated amide compound used as TGF-β RI inhibitor” (GENFLEET THERAPEUTICS (SHANGHAI) INC., priority 2016, dated 2020).

The subject of assay [1] is liver cancer. Conditions: phase 2, patients with liver cancer; cited from earlier work.
The test system of assay [2] is mouse breast cancer 4T1 cells. The assay can be described thus: Tumor cell metastasis inhibition in BALB/c mouse orthotopic transplantation model of mouse breast cancer 4T1 cells. The format is in vivo. The note with it: 75 mg/kg PO once a day × 32. How it is done:
Fluorescently labeled mouse breast cancer 4T1-Luc cells were expanded in vitro. Before the cells were collected, the mice were anesthetized with intraperitoneal injection of sodium pentobarbital. After anesthetized mice were fixed, the abdominal skin was disinfected with 70% alcohol. 100 uL of phosphate buffer (containing 0.5×10^6 4T1-luc2 cells) was inoculated into the left side of the fourth pair of abdominal mammary fat pads in mice, and the incision was sutured to disinfect the skin. The animals are kept warm with a warm blanket, observed until they wake up and put back in their cages. 0.1 mg/kg buprenorphine for pain relief was subcutaneously injected 30 min before surgery and 6 hours after surgery.
On the third day after modeling, the animals were subjected to bioluminescence detection by infrared data imaging, randomly grouped according to the fluorescence values, and administered according to the following experimental protocol, see Table 5.
To observe the inhibitory effect of embodiment 1 on tumor growth and metastasis, the experimental endpoint was designed to be 30-35 days after administration, with reference to historical data of the model. At the end of the experiment, the in situ tumor and various organ tissues were dissected, the tumor was weighed, and the fluorescence intensity of each organ was detected by IVIS fluorescence. Growth inhibition of orthotopic tumors can be compared by the weight of the in situ tumor in the experimental endpoint, and the inhibition curve is generated from the tumor volume measurement data twice a week during the experiment. The inhibition of tumor metastasis was determined by the presence or absence of fluorescence detection of each organ and the analysis of relative fluorescence intensity.
At the end of the experiment, the tumor weight will be detected and the relative tumor growth rate T/C (%) will be calculated; the tumor volume is calculated as: V=0.5a×b^2, and a and b represent the long and short diameters of the tumor, respectively. At the same time, the lung, liver, spleen, kidney, intestine and left upper limb were stripped, and fluorescence was detected to determine whether there was metastasis and metastasis intensity and ratio.
The antitumor effect of the compound was evaluated by the tumor growth inhibition rate TGI (%) or the relative tumor growth rate T/C (%).
Calculation of TGI (%): TGI (%)=[(1−mean tumor volume at the end of administration of a treatment group−mean tumor volume at the start of administration of the treatment group))/(mean tumor volume at the end of treatment of the solvent control group−mean tumor volume at the start of administration of the solvent control group)]×100%.
Relative tumor growth rate T/C (%) calculation: T/C(%)=Tt(treatment group)/Ct(control group)×100%, Tt is the average tumor volume at a certain measurement, and Ct takes the same day data.
The experimental results were statistically analyzed using one-way ANOVA. If there is a significant difference in F values, multiple comparisons should be made after ANOVA analysis. All data in this experiment were analyzed using SPSS 17.0. A significant difference was considered at p<0.05.
At the end of the experiment, each organ tissue was peeled off, and fluorescence imaging and fluorescence intensity value recording were measured by IVIS for 40 sec exposure within 8 min. The fluorescence imaging results of the tested tissues of the 10 animals excised by the maximum and minimum values are shown in Table 6.
According to the experimental end point, the fluorescence intensity of each group of organs was normalized by the control group, and the relative fluorescence intensity ratio of each group of organs was obtained. The ratio reflects the level of metastatic intensity on the corresponding organs.

In assay [3] the test system is CT-26 cells. The experiment in a line: Tumor cell proliferation inhibition in BALB/c mouse model of subcutaneously transplanted CT-26 cells, alone or combined with BioXcell-mPD-L1. It counts as in vivo. The note with it: for Tumor volume: average ± SEM, small molecules 75 mg/kg PO twice a day, BioXcell-mPD-L1 10 mg/kg IP twice a week. How it is done: The following table lists the animal grouping and dosing regimen of embodiment 1, the positive reference compound LY2157299 and the BioXcell PD-L1 monoclonal antibody (BioXcell-mPD-L1), which are used alone or in combination in vivo.
Mouse colon cancer CT-26 cells were cultured in vitro in a single layer, and culture conditions is RPMI1640 medium (Medium No. 1640, Roswell Parker Memorial Institute) supplemented with 10% fetal bovine serum at 37° C., 5% CO2. Passage was routinely digested with trypsin-EDTA twice a week. When the cell saturation is 80%-90%, the cells are collected, counted, and inoculated.
0.1 mL (1×10^5) CT-26 cells were subcutaneously inoculated into the right back of each BALB/c mouse. The mice were administered in groups according to the body weight of the mice on the second day after cell inoculation.
The experimental indicator is to investigate whether tumor growth is inhibited, delayed or cured. Tumor diameters were measured with Vernier calipers twice a week. The tumor volume is calculated as: V=0.5a×b^2, and a and b represent the long and short diameters of the tumor, respectively.
The antitumor effect of the compound was evaluated by TGI (%) or tumor proliferation rate T/C (%). TGI (%) reflects the tumor growth inhibition rate. Calculation of TGI (%): TGI (%)=[(1-(mean tumor volume at the end of administration of a treatment group—mean tumor volume at the start of administration of the treatment group))/(mean tumor volume at the end of treatment of the solvent control group)—mean tumor volume at the start of treatment of the solvent control group)]×100%.
Tumor proliferation rate T/C (%): The formula is as follows: T/C %=T/C×100% (T: treatment group; C: negative control group).
Tumor weights were measured after the end of the experiment and the percentage of T/Cweight was calculated. Tweight and Cweight represent the tumor weights of the drug-administered group and the vehicle control group, respectively.
Statistical analysis, including mean and standard error (SEM) of tumor volume at each time point for each group (see Table 4 for specific data). […] T-test was used for comparison between the two groups, and one-way analysis of variance was used for comparison between three or more groups. If there was a significant difference in F values, the Gass-Howell method was used to test. If there is no significant difference in F values, the Dunnet (2-sided) method is used for analysis. All data analysis was performed with SPSS 17.0. A significant difference was considered at p<0.05.

[4] abbreviates: animals with metastasis/animals in group.
The mark [5] stands for this setting: average organ fluorescence relative to control group.

“And” between values parts separate entries of the source, which are not always exact repeats. Equal values may be shown once.

As for `Cc1cccc(-c2nn3c(c2-c2ccnc4ccc(C(N)=O)cc24)CCC3)n1` [LY2157299, Galunisertib, reference compound], in assay [1], the “Patients with a decrease in serum alpha-fetoprotein (AFP) level of more than 20%” value is on record as “about 23%”. Further, in assay [2] (setting [4]), the “Metastasis rate, intestine” value stood at 60%; the “Metastasis rate, kidney” value is reported as 30%; the “Metastasis rate, liver” value was found to be 80%; the “Metastasis rate, lung” value worked out at 100%. Moreover, in assay [2] (setting [4]), the “Metastasis rate, spleen” value was determined as 10% and the “Metastasis rate, upper limb” value is given as 70%. For the same compound, in assay [2] (setting [5]), the “Metastasis level, intestine” value turned out to be 41%; the “Metastasis level, kidney” value came to 121%; the “Metastasis level, liver” value was 31%; the “Metastasis level, lung” value turned out to be 20%. In assay [2] (setting [5]), the “Metastasis level, spleen” value worked out at 4% and the “Metastasis level, upper limb” value was determined as 54%. For the same compound, the Tumor volume in assay [3] (day 10 of administration) is 98 ± 14 mm^3. The Tumor volume in assay [3] (day 13 of administration) stood at 446 ± 104 mm^3. Besides, the Tumor volume in assay [3] (day 15 of administration) came to 840 ± 177 mm^3. Further, in assay [3] (day 17 of administration), the Tumor volume is 1256 ± 257 mm^3. In assay [3] (day 20 of administration), the Tumor volume was 2186 mm^3 and 2186 ± 435 mm^3. Also, in assay [3] (twenty days after start of administration, 75 mg/kg PO and/or 10 mg/kg IP), the “Tumor proliferation rate T/C” value came out at 85%. Further, in assay [3] (twenty days after start of administration, 75 mg/kg and/or 10 mg/kg), the “Antitumor effect compared with the solvent control group” value is given as “no significant antitumor effect”.
